Test: Renal excretion of vosaroxin and metabolites in urine, 24 h after first dose
Type: in vivo, human
Conditions: 18 and 27 mg/m^2 weekly, eight patients

## CO[C@H]1CN(c2ccc3c(=O)c(C(=O)O)cn(-c4nccs4)c3n2)C[C@@H]1N [N-desmethyl-vosaroxin]
24 h after first dose
  Average renal excretion of the total dose infused: 0.99%
First dose
  Detection in urine: the only metabolite detected in urine
First dose, coefficient of variation 40%
  Ratio of N-desmethyl-vosaroxin to vosaroxin excretion in urine: 0.43

— publication PMC4576993 (Leukemia, 2011)
